Test results taken from US5959113A, “Imidazol derivatives” (Hoffmann-La Roche Inc., priority 1994, dated 1999).

Columns and labels:
[1] = biological target: T1, EGF-receptor tyrosine kinase (Homo sapiens, UniProt P00533); test: Inhibition of EGF-receptor Tyrosine Kinase; assay type: biochemical; conditions: EGF-R from A431 cell membranes, 30 °C, 30 min, ATP 10 μM, RR-src peptide 0.75 mM; read-out: IC50 Isolated enzyme EGF-R
T1 construct: A membrane fraction from human A431 cells is used as the enzyme; endogenous in cells; host or cells: A431 cells, membrane fraction (Thom et al., Biochem. J. 168, 187 (1977))
Description: Inhibition of EGF-receptor Tyrosine Kinase
The activity of EGF-receptor tyrosine kinase is determined by measuring the transfer of ^32 P-labelled phosphate from ^32 P-γ-ATP (10 μM) to the substrate RR-scr peptide* (0.75 mM). A membrane fraction from human A431 cells is used as the enzyme. It is isolated according to Thom et al., Biochem. J. 168, 187 (1977) and stored at -75° C. (4-6 mg protein/ml). The compounds are tested in 10% DMSO in a concentration of 0.001-100 μM. The incubation is carried out at 30° C. for a period of 30 minutes in Tris buffer (25 mM, pH 7.4) which contains magnesium acetate (30 mM), sodium vanadate (0.5 mM), 0.5% BSA and 0.05% Triton X-100. The membranes are pre-incubated with 2 μM of EGF at 4° C. for 90 minutes. The test is started by adding the enzyme (2 μg of membrane protein) and terminated by adding ice-cold KH2 PO4 (1M, pH 3.0). After centrifugation the labelled peptide is separated from excess ATP in the supernatant by reversed phase HPLC. The peptide fraction is collected and the radioactivity is measured in a standard β-counter or on-line with a radiometer (Berthold). The inibitory activity of the test compound is expressed as the mikromolar concentration which is required for 50% inhibition (IC50 [μM]).
*RR-src peptide=[Arg-Arg-Leu-Ile-Glu-Asp-Ala-Glu-Tyr-Ala-Ala-Arg-Gly]
(§1) The inhibition of selected protein kinases in vitro and the inhibition of cell proliferation in HaCaT-cells by these compounds are set forth in the following Table.

protein kinase C (PKC) = test: Inhibition of protein kinase C (PKC); assay type: biochemical; conditions: partially purified PKC from hog brain, histone H1, ATP 10 μM, 2 min at 32 °C; read-out: IC50 Isolated enzyme PCK
Description: Inhibition of protein kinase C (PKC)
The activity of PKC is measured by measuring the transfer of ^32 P-labelled phosphate from ^32 P-γ-ATP (10 μM) to the substrate histone H1 (200 μg/ml) using partially purified PKC from hog brain (DEAE chromatography according to U. Kikkawa et al., Methods Enzymol. 99, 288, 1983). PKC is activated by phospholipid vesicle prepared by sonicating a mixture of 0.05 ml of phosphatidylserine (10 mg/ml) and 0.005 ml of diolein (10 mg/ml) in 5 ml of Tris HCl buffer (20 mM, pH 7.4). The compounds are tested in DMSO/buffer at a concentration of 0.001-100 μM. The test is started by adding the enzyme, takes 2 minutes at 32° C. and is terminated by adding 20% trichloroacetic acid (containing 1% SDS and 1% sodium pyrophosphate). The precipitated protein with the labelled histone is separated from excess ATP by filtration over a nitrocellulose membrane filter. The radioactivity on the filter is measured in a scintillation counter. The inhibitory activity of the test compound is expressed as the micromolar concentration which is required for 50% inhibition (IC50 [μM]).
as §1

HaCaT cells = test: Inhibition of HaCaT cell proliferation; assay type: cell-based; conditions: Homo sapiens, [3H]-thymidine incorporation, 48 h at 37 °C
Description: Inhibition of HaCaT cell proliferation
HaCaT is a spontaneous immortalized human keratinoycte cell line (Boukamp et al. 1988) which has been used many times as a model system for hyperproliferative keratinoyctes. The incorporation of [^3 H]-thymidine was used to quantify the growing cells in the S phase of the cell cycle. The cells were cultivated with a 3:1 mixture of DMEM/F12 medium which had been supplemented with 5% FCS, EGF (10 μg/l), hydrocortisone (400 μg/l), cholera toxin (8.5 μg/l), insulin (5 μg/l), L-glutamine (2 mM) and penicillin/streptomycin. 200 μl of medium were placed in microtitre plates such that each sample contained 5000 cells. The test compounds were added in serial dilutions in the range of 1×10^-8 M to […] at the beginning of the cultivation. The cells were incubated at 37° C. for 48 hours. For the last 6 hours [^3 H]-thymidine was added ([…]). After digesting the cells with trypsin the amount of incorporated radioactivity was quantified with a liquid scintillation counter.
as §1

[2] = biological target: cAMP-dependent protein kinase (PKA); test: Inhibition of cAMP-dependent protein kinase (PKA); assay type: biochemical; conditions: partially purified PKA from hog brain, histone H1, ATP 10 μM, 2 min at 32 °C; read-out: IC50 Isolated enzyme PKA
Description: Inhibition of cAMP-dependent protein kinase (PKA)
The activity of PKA is measured by measuring the transfer of ^32 P-labelled phosphate from ^32 P-γ-ATP (10 μM) to the substrate histone H1 (333 μg/ml) using partially purified PKA from hog brain (DEAE chromatography according to U. Kikkawa et al., Methods Enzymol. 99, 288, 1983). PKA is activated by 2 μM of cAMP in Tris HCl buffer (20 mM, pH 7.4). The compounds are tested in DMSO/buffer at a concentration of 0.001-100 μM. The test is started by adding the enzyme, takes 2 minutes at 32° C. and is terminated by adding 20% trichloroacetic acid (containing 1% SDS and 1% sodium pyrophosphate). The precipitated protein, which contains the radiolabelled histone, is separated from excess ATP by filtration through a nitrocellulose membrane filter. The radioactivity on the filter is determined in a scintillation counter. The inhibitory activity of the test compounds is expressed as the micromolar concentration which is required for 50% inhibition (IC50 [μM]).
as §1

p56^Ick tyrosine kinase = biological target: T2, p56^Ick tyrosine kinase (Homo sapiens, UniProt P06239); test: Inhibition of p56^Ick tyrosine kinase; assay type: biochemical; conditions: human recombinant p56lck, 30 °C, 30 min, ATP 10 μM, RR-src peptide 0.75 mM; read-out: IC50 Isolated enzyme p56^lck
T2 construct: made in house; host or cells: E. coli
Description: Inhibition of p56^Ick tyrosine kinase
The activity of p56^Ick tyrosine kinase is determined by measuring the transfer of ^32 P-labelled phosphate from ^32 P-γ-ATP (10 μM) to the substrate RR-src peptide (0.75 mM). Human recombinant p56^Ick (expressed in E. coli) is used as the enzyme.
It is purified from the soluble fraction by means of a monoclonal antibody column and stored at -75° C. The compounds are tested in 10% DMSO in a concentration of 0.001-100 μM, The incubation is carried out at 30° C. for a period of 30 minutes in HEPES buffer (50 mM, pH 6.9) which contains manganese chloride (11 mM) and 0.5% BSA. The test is started by adding the enzyme and terminated by adding ice-cold KH2 PO4 (1M, pH 3.0). After centrifugation the radiolabelled peptide is separated from excess ATP in the supernatant by reversed phase HPLC. The peptide fraction is collected and the radioactivity is determined in a standard β- counter or on-line with a radiometer (Berthold). The inhibitory activity of the test compound is expressed as the micromolar concentration which is required for 50% inhibition (IC50 [μM]).
as §1

mouse hair follicles = test: Stimulation of cell proliferation in cultured mouse hair follicles; assay type: cell-based; conditions: for EC50: read-out: concentration which resulted in a half-maximum stimulation of the DNA synthesis (EC50 value)
Description: Stimulation of cell proliferation in cultured mouse hair follicles
Mouse hair follicles are isolated and cultured according to the method described by Buhl et al., J. Invest. Dermatol. 92, 315 (1989). Whisker parts are removed from CD-1 mice aged 4 days and the hair follicles are carefully separated from surrounding tissue under the microscope. Hair follicles are cultured in M199 medium which contains 20% FBS and the cell proliferation is determined from the incorporation of [^3 H]-thymidinein DNA. The test compounds are dissolved in DMSO and added in serial dilutions in the range of 1×10^-8 to 1×10^-6 M at the beginning of the cultivation. After 1 day 5 μCi/ml of [^3 H]-thymidine are added to the culture medium and the follicles are incubated for a further 3 days. The hair follicles are then washed with phosphate-buffered saline solution in order to remove non-incorporated radioactivity and the DNA is solubilized by incubation with alkali overnight. The radioactivity incorporated into the follicular DNA is then measured using a liquid scintillation counter.

[3] = [3H]-thymidine incorporation, CD-1 mouse whisker follicles

T1 sequence (P00533 25-1210): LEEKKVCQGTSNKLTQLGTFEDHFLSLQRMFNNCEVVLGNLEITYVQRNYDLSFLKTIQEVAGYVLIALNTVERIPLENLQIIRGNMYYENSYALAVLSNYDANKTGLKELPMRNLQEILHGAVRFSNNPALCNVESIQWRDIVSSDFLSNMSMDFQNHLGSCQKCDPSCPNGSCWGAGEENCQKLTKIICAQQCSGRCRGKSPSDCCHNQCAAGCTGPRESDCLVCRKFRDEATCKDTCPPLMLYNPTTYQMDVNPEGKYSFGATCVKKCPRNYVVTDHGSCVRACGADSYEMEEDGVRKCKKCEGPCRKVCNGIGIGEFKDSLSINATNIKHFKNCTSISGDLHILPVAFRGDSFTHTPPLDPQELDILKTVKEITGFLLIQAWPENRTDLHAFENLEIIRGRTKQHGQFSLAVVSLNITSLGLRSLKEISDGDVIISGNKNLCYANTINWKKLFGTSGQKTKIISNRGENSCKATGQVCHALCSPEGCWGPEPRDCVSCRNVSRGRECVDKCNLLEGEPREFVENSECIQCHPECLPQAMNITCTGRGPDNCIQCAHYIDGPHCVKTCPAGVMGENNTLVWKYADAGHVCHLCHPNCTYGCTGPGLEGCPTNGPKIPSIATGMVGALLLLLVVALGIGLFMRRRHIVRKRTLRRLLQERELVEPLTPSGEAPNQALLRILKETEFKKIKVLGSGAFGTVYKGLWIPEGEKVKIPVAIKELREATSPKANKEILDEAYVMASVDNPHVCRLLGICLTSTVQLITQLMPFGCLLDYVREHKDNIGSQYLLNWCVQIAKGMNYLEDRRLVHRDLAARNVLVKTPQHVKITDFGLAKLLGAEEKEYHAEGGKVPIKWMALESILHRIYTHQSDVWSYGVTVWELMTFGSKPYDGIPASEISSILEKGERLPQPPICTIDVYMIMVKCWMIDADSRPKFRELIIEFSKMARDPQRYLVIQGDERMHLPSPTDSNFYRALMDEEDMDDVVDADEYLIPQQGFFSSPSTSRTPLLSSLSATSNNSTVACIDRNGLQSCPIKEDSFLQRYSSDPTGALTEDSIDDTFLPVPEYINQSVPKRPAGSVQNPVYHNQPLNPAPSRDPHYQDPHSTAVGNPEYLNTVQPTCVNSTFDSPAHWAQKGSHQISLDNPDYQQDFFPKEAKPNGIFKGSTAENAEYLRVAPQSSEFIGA
T2 sequence (P06239 whole entry): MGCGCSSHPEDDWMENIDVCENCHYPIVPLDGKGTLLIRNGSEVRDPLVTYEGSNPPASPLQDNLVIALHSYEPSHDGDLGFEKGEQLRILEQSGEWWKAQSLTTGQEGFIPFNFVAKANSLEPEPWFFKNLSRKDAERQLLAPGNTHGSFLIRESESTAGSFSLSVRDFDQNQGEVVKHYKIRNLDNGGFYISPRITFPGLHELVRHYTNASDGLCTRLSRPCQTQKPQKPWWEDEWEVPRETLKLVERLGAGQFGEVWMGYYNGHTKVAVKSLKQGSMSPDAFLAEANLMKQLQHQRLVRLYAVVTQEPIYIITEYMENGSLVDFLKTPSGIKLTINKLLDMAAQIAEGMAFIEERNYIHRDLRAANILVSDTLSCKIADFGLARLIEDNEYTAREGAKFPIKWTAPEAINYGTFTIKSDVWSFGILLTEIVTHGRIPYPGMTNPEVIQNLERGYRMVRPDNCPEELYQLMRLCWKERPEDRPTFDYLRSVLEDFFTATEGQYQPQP

Row | SMILES | IC50 [1] | IC50 (protein kinase C (PKC)) | IC50 (HaCaT cells) | IC50 [2] | IC50 (p56^Ick tyrosine kinase) | activity at 0.3 µM (mouse hair follicles; 96 h, at 0.3 μM, [3H]-thymidine incorporation, CD-1 mouse whisker follicles, read-out: maximum DNA synthesis value (compared with controls)) | EC50 (mouse hair follicles; [3]) | activity in this culture system compared with known hypotrichotic agents (mouse hair follicles; mouse hair follicle culture) | stimulation of hair follicle DNA synthesis (compared with controls) (mouse hair follicles; concentration not given, comparison agent, 5760 min)
1 | Cc1cccc(-c2[nH]c(-c3c(C)cc(C)cc3C)nc2-c2ccncc2)c1 [Example 4, 4-[5-(3-methylphenyl)-2-(2,4,6-trimethylphenyl)imidazol-4-yl]pyridine] | 800 nM | > 100 µM | 2000 nM | 190 µM | 6 µM | – | – | – | –
2 | Cc1cc(C)c([N+](=O)[O-])c(C)c1-c1nc(-c2ccncc2)c(-c2ccc(Cl)cc2)[nH]1 [Example 15, 4-[5-(4-chlorophenyl)-2-(2,4,6-trimethyl-3-nitrophenyl)-imidazol-4-yl]pyridine] | 780 nM | – | 670 nM | – | 4.95 µM | – | – | – | –
3 | Cc1cc(C)c(-c2nc(-c3ccncc3)c(-c3ccc(Cl)cc3)[nH]2)c(C)c1CN(C)C [Example 12, [3-[5-(4-chlorophenyl)-4-pyridin-4-yl-imidazol-2-yl]-2,4,6,-trimethylbenzyl]dimethylamine] | 50 nM | 7 µM | 570 nM | 5 µM | 1.65 µM | – | – | – | –
4 | COC(=O)c1c(C)cc(C)c(-c2nc(-c3ccncc3)c(-c3ccc(Cl)cc3)[nH]2)c1C [Example 9, methyl 3-[5-(4-chlorophenyl)-4-pyridin-4-yl-imidazol-2-yl]2,4,6-trimethylbenzoate] | 140 nM | 80 µM | 230 nM | 6 µM | 3.8 µM | – | – | – | –
5 | Cc1cc(C)c(-c2nc(-c3ccncc3)c(-c3ccc(Cl)cc3)[nH]2)c(C)c1CN1CCN(C)CC1 [Example 13, 1-[3-[5-(4-chlorophenyl)-4-pyridin-4-yl-imidazol-2-yl]-2,4,6,-trimethylbenzyl]-4-methylpiperazine] | 50 nM | 37 µM | 100 nM | 1.5 µM | 1.8 µM | – | – | – | –
6 | Cc1cc(C)c(-c2nc(-c3ccncc3)c(-c3ccc(Cl)cc3)[nH]2)c(C)c1CN1CCOCC1 [Example 11, 4-[3-[5-(4-chlorophenyl)-4-pyridin-4-yl-imidazol-2-yl]-2,4,6,-trimethylbenzyl]morpholine] | 260 nM | > 100 µM | 100 nM | 43 µM | 5.1 µM | – | – | – | –
7 | CC(C)c1cccc(C(C)C)c1-c1nc(-c2ccncc2)c(-c2ccc(Cl)cc2)[nH]1 [Example 7, 4-[5-(4-chlorophenyl)-2-(2,6-diisopropylphenyl)imidazol-4-yl]pyridine] | 130 nM | 100 µM | 3500 nM | 0.47 µM | 3.1 µM | – | – | – | –
8 | Cc1cc(C)c(-c2nc(-c3ccncc3)c(-c3ccc(Cl)cc3)[nH]2)c(C)c1 [Example 1, 4-[5-(4-chlorophenyl)-2-(2,4,6-trimethyphenyl)imidazol-4-yl]pyridine] | 340 nM | > 100 µM | 2000 nM | 6.3 µM | 2.2 µM | 211 ± 17% | 0.1 µM | exceeded that of known hypotrichotic agents | –
9 | Nc1cc(N2CCCCC2)nc(N)[n+]1[O-] [minoxidil, reference compound] | – | – | – | – | – | – | 200 µM | – | 160±15%
10 | Nc1cccc(Cl)c1-c1nc(-c2ccncc2)c(-c2ccc(Cl)cc2)[nH]1 [Example 18, 3-chloro-2-[5-(4-chlorophenyl)-4-pyridin-4-yl-imidazol-2-yl]phenylamine] | 290 nM | 23 µM | 2000 nM | 1.8 µM | 14 µM | – | – | – | –
11 | Cc1cc(C)c(-c2nc(-c3ccncc3)c(-c3ccc(Cl)cc3)[nH]2)c(C)c1O [Example 16, 3-[5-(4-chlorophenyl)-4-pyridin-4-yl-imidazol-2-yl]-2,4,6,-trimethylphenol] | 310 nM | – | 800 nM | – | 2.2 µM | – | – | – | –
